Test: passive permeability, PAMPA, ADME assay (AID 1508612)
Details: pH 7.4, 30.0 min, 50.0 µM

Structure (SMILES) | Papp
Cc1nnc(N2C(=O)c3oc4ccccc4c(=O)c3C2c2ccc(F)cc2)s1 (stereo unspecified) | 314 ×10⁻⁶ cm/s
Cc1ccc(S(=O)(=O)Nc2cnccc2C(=O)Nc2nc(C(=O)O)cs2)cc1 | < 1 ×10⁻⁶ cm/s
COc1ccc(O)c(CNc2ccc(S(=O)(=O)Nc3nccs3)cc2)c1 | 3.74 ×10⁻⁶ cm/s
Cc1ccc(S(=O)(=O)Nc2cnccc2C(=O)Nc2nc(-c3cc4ccccc4o3)cs2)cc1 | 2.48 ×10⁻⁶ cm/s
CC(NCc1ccc2c(c1)nc(NC(=O)c1ccc(-c3cn[nH]c3)s1)n2CC(C)(C)O)C(C)(C)C (stereo unspecified) | 820 ×10⁻⁶ cm/s
CCOC(=O)C1CCN(C(=O)C(C)(C)NC(=O)Nc2ccc(-c3ccccc3)cc2)CC1 | 486 ×10⁻⁶ cm/s
c1ccc(-c2nnc3n2NC(c2ccc4c(c2)OCO4)S3)cc1 (stereo unspecified) | 607 ×10⁻⁶ cm/s
CC(=O)N1CCc2c(sc3c2c(=O)n(-c2ccccc2Cl)c(=O)n3Cc2cccc(C)c2)C1 | 338 ×10⁻⁶ cm/s
Nc1cccc(CNc2ccc(S(=O)(=O)Nc3nccs3)cc2)c1O | < 1 ×10⁻⁶ cm/s
COc1ccc(-c2cc(-c3cccc(NC(C)=O)c3)cn3cncc23)cn1 | 39 ×10⁻⁶ cm/s
Cc1noc(C)c1Cc1ccc(C(=O)N2CCc3c(nc4cc(-c5ccccc5)[nH]n4c3=O)C2)o1 | 7.01 ×10⁻⁶ cm/s
Cc1ccccc1C(=O)N1CCc2cc(-c3csc(NC(=O)Cc4ccc5c(c4)OCO5)n3)ccc21 | > 1000 ×10⁻⁶ cm/s
Oc1cccc2nc3ccccc3nc12 | 513 ×10⁻⁶ cm/s
O=C(NC1CCCCC1)N1Cc2[nH]cnc2C[C@H]1c1nc(-c2cccc([N+](=O)[O-])c2)no1 | 202 ×10⁻⁶ cm/s
COc1oc(-c2cccc3ccccc23)nc1C(=O)O | 1.44 ×10⁻⁶ cm/s
C[C@@H]1Cc2c([nH]c3cc(Cl)c(F)cc23)[C@]2(N1)C(=O)Nc1ccc(Cl)cc12 | 763 ×10⁻⁶ cm/s
CC1=C(C(=O)Nc2ccccc2)C(c2ccc[nH]2)n2ncnc2N1 (stereo unspecified) | 80 ×10⁻⁶ cm/s
CCc1oc2ccccc2c1C(=O)c1cc(Br)c(O)c(Br)c1 | 62 ×10⁻⁶ cm/s
CCN(CC)C(=O)c1ccc2c(c1)ncn2-c1cccc(C)c1 | 889 ×10⁻⁶ cm/s
CC(C)(C)n1nc(-c2ccc(Cl)cc2)c2c(N)ncnc21 | > 1000 ×10⁻⁶ cm/s
COc1cccc(CNc2ccc(S(=O)(=O)Nc3ncc(-c4ccccc4)s3)cc2)c1O | 36.6 ×10⁻⁶ cm/s
O=S(=O)(Nc1cccc(C(F)(F)F)c1)c1ccc(NS(=O)(=O)c2ccc3c(c2)OCCO3)cc1 | 668 ×10⁻⁶ cm/s

Structure (SMILES) | Papp
Clc1ccc2ncc(-c3cccc(NC4CCNC4)n3)n2c1 (stereo unspecified) | 332 ×10⁻⁶ cm/s
CCOC(=O)c1ccc(NC(=O)CSc2nc3c(cc2C#N)N2CCC3CC2)cc1 | 422 ×10⁻⁶ cm/s
COc1cc2c(c(OC)c1OC)-c1ccc(OC)c(=O)cc1[C@@H](NC(C)=O)CC2 | 1.93 ×10⁻⁶ cm/s
CCOc1ccccc1CNS(=O)(=O)c1ccc(-c2cnc(C3CC3)o2)cc1 | > 1000 ×10⁻⁶ cm/s
COc1cccc(CNc2ccc(S(=O)(=O)Nc3nc(C)cs3)cc2)c1O | 128 ×10⁻⁶ cm/s
Cc1ccnc(NC(=S)N2CCN(c3cccc(C(F)(F)F)c3)CC2)c1 | > 1000 ×10⁻⁶ cm/s
CC[C@@H](C)Nc1cc(C(=O)NC2CC3CCC(C2)N3c2ccc(C(=O)C3CC3)cn2)c(C)cc1C(N)=O (stereo partly specified) | > 1000 ×10⁻⁶ cm/s
CCNC(=O)c1coc(COc2ccc3c(c2)C(c2ccc(F)cc2)N(C(=O)CC(C)C)CC3)n1 (stereo unspecified) | 938 ×10⁻⁶ cm/s
NC1CCC(Nc2nc(Nc3ccc(C(=O)N4CCCCC4)cc3)c3ncn(-c4cccc(F)c4)c3n2)CC1 (stereo unspecified) | 21.8 ×10⁻⁶ cm/s
Nc1nc2c(s1)C(c1c(Cl)cccc1Cl)CC(=O)N2 (stereo unspecified) | 5.54 ×10⁻⁶ cm/s
CC1=C(C(=O)Nc2nncs2)C(c2[nH]ncc2Cl)N=C(Nc2nc3ccccc3o2)N1 (stereo unspecified) | 37 ×10⁻⁶ cm/s
CCOc1ccc(NC(=O)c2cccc(-n3cccc3)c2)cc1S(=O)(=O)N1CCOCC1 | 80.4 ×10⁻⁶ cm/s
O=C(O)c1cn(C2CC2)c2cc(N3C[C@@H]4C[C@H]3CN4)c(F)cc2c1=O | < 1 ×10⁻⁶ cm/s
COc1ccc(CN2C(=O)[C@@H]3C[C@@H](CN3Cc3cccs3)Oc3ccccc32)cc1 | 900 ×10⁻⁶ cm/s
CC(=O)N1CCN(c2nc(-c3ccc(Br)cc3)cs2)CC1 | 995 ×10⁻⁶ cm/s
COc1cccc(C(=O)Nc2nnc(S(=O)(=O)N3CCOCC3)s2)c1 | 19.2 ×10⁻⁶ cm/s
Nc1c(-c2ccncc2)cc[nH]c1=O | 3.1 ×10⁻⁶ cm/s
O=C(Nc1nc(-c2ccccc2)cs1)c1ccncc1NS(=O)(=O)c1ccc(-c2ccccc2)cc1 | < 1 ×10⁻⁶ cm/s
O=C(NCC1Cn2cccc2CN1Cc1cccnc1)Nc1ccccc1 (stereo unspecified) | < 1 ×10⁻⁶ cm/s
NC(=O)C1CCN(c2nc(-c3ccc4occc(=O)c4c3)cs2)CC1 | 106 ×10⁻⁶ cm/s
COc1cc(OC)cc(-c2csc(N3CCC(C(N)=O)CC3)n2)c1 | > 1000 ×10⁻⁶ cm/s
CC1(COc2ccc3c(c2)ncn3-c2ccc3cccc(N4CCC(N)CC4)c3n2)COC1 | 25.2 ×10⁻⁶ cm/s

Structure (SMILES) | Papp
Cc1ccccc1S(=O)(=O)N1CCCC(CCC(=O)NCCN(C)C2CCCCC2)C1 (stereo unspecified) | > 1000 ×10⁻⁶ cm/s
Cc1ccc(S(=O)(=O)NCCC(=O)Nc2nc(-c3ccccc3)cs2)cc1 | 861 ×10⁻⁶ cm/s
Fc1ccc(Nc2nc(-n3ccnc3)nc3ccccc23)cc1F | 223 ×10⁻⁶ cm/s
O=C1Nc2ccccc2/C1=C/c1cc(Cl)c(O)c(Cl)c1 | 49 ×10⁻⁶ cm/s
COc1ccc(NC(=O)c2[nH]c(C)c(C(C)=O)c2C)cc1S(=O)(=O)Nc1ccc(C#N)cc1 | 35.7 ×10⁻⁶ cm/s
CN(C)C(=O)c1ccc(-c2cc[nH]c(=O)c2N)cc1 | 12.1 ×10⁻⁶ cm/s
COc1cnccc1-c1nc(Nc2ccc(F)c(F)c2)c2ccccc2n1 | 3.6 ×10⁻⁶ cm/s
NC(=O)C1CCN(c2nc(-c3ccc([N+](=O)[O-])cc3)cs2)CC1 | 604 ×10⁻⁶ cm/s
C[C@H]1[C@@H](CCC(=O)Nc2ccc(F)cc2)O[C@@H]2O[C@]3(C)CC[C@@H]4[C@H](C)CC[C@@H]1[C@@]24OO3 | > 1000 ×10⁻⁶ cm/s
O=c1c2ccccc2nc2n1CCC2 | 44.2 ×10⁻⁶ cm/s
CC(=O)c1c(C)[nH]c(C(=O)Nc2cccc(S(=O)(=O)Nc3cccc(C#N)c3)c2)c1C | 68.9 ×10⁻⁶ cm/s
CN1CCN(C2=Nc3cc(Cl)ccc3Nc3ccccc32)CC1 | > 1000 ×10⁻⁶ cm/s
CC(C)(C#N)c1ccc(N2C(=O)OCc3cnc4ccc(-c5cnc6ccccc6c5)cc4c32)cc1 | 47.5 ×10⁻⁶ cm/s
CN(C)c1cccc(-c2nccc(N3CCC(C(N)=O)CC3)n2)c1 | 287 ×10⁻⁶ cm/s
Cc1csc2nc(-c3cccc(NC(=O)c4cccc(F)c4)c3)cn12 | > 1000 ×10⁻⁶ cm/s
CCOC(=O)CCNc1cc(N2CCc3ccccc3CC2)nc(-c2ccccn2)n1 | > 1000 ×10⁻⁶ cm/s
O=C(Nc1ccc(OC(F)(F)Cl)cc1)c1cnc(N2CC[C@@H](O)C2)c(-c2ccn[nH]2)c1 | 14.6 ×10⁻⁶ cm/s
NC(=O)C1CCN(c2nc(-c3cccc(C(F)(F)F)c3)cs2)CC1 | 566 ×10⁻⁶ cm/s
CN(C)c1cccc(-c2cnc(Nc3cccnc3)c3c2CCO3)c1 | > 1000 ×10⁻⁶ cm/s
Cc1cc(-c2nnc3n2CCCCC3)c(C)n1-c1ccncc1 | 24.5 ×10⁻⁶ cm/s
COC(=O)CNC(=O)c1nc(-c2ccccc2OC)c2ccccn12 | > 1000 ×10⁻⁶ cm/s
COc1ccc(S(=O)(=O)N2CCOCC2)cc1NC(=O)c1cccc(-n2cccc2)c1 | < 1 ×10⁻⁶ cm/s

Structure (SMILES) | Papp
NC(=O)C1CCN(c2nc(-c3ccc4ccccc4c3)cs2)CC1 | 406 ×10⁻⁶ cm/s
Cc1c(O)ccc2c1OC(C)(C)CC2 | 540 ×10⁻⁶ cm/s
CC(C)(C)C1CCc2[nH]c3ccccc3c(=O)c2C1 (stereo unspecified) | 356 ×10⁻⁶ cm/s
C=Cc1ccc(C(=O)N2CCCC(CCC(=O)N3CCN(c4ccccn4)CC3)C2)cc1 (stereo unspecified) | 421 ×10⁻⁶ cm/s
Cc1ccc(NC(=O)NCC2CCN(Cc3cccc(Cl)c3)CC2)cc1Cl | 746 ×10⁻⁶ cm/s
O=C(O)c1ccc(-c2c[nH]c3ncc(-c4ccccc4)cc23)cc1C1CCCC1 | 400 ×10⁻⁶ cm/s
NC1(c2ccccc2Cl)CCCCC1=O (stereo unspecified) | 62 ×10⁻⁶ cm/s
Cc1ccc(S(=O)(=O)Nc2cnccc2C(=O)Nc2nc(-c3ccc(F)cc3)cs2)cc1 | 423 ×10⁻⁶ cm/s
Cc1ccc(S(=O)(=O)Nc2cnccc2C(=O)Nc2ccccc2)cc1 | 123 ×10⁻⁶ cm/s
Nc1nc2c(s1)C(c1ccccc1OCc1ccccc1Cl)CC(=O)N2 (stereo unspecified) | 509 ×10⁻⁶ cm/s
Cc1noc(C)c1-c1cc2c(cc(C)n2C)c(-c2cnn(C)c2)n1 | 549 ×10⁻⁶ cm/s
Nc1nc(Nc2ccc(S(N)(=O)=O)cc2)nn1C(=O)c1c(F)cccc1F | 1.61 ×10⁻⁶ cm/s
Cc1ccc(-c2[nH]n3c(=O)c4c(nc3c2C)CCCC4)cc1 | 506 ×10⁻⁶ cm/s
Cc1cc2c(C(N)=O)cccc2n1-c1nc2c(c(NCc3ccccc3)n1)COCC2 | 597 ×10⁻⁶ cm/s
Cc1ccc(S(=O)(=O)Nc2cnccc2C(=O)Nc2nc(-c3cccc(Cl)c3)cs2)cc1 | 38 ×10⁻⁶ cm/s
c1ccc(-c2cn[nH]c2)cc1 | 288 ×10⁻⁶ cm/s
CC(C)(C)n1cnc2cc(C(=O)N3CCCCC3)ccc21 | 106 ×10⁻⁶ cm/s
CN(C)C(=O)C1CCN(c2nc(-c3ccc(Br)cc3)cs2)CC1 | 583 ×10⁻⁶ cm/s
COC(=O)c1cccc(NC(=O)c2cnc(-c3ccc(F)cc3)nc2-c2ccncc2)c1 | > 1000 ×10⁻⁶ cm/s
O=C(Nc1ccc(C(=O)Nc2nccs2)cc1)c1ccc2ccccc2c1 | > 1000 ×10⁻⁶ cm/s
CC[C@@]1(O)C(=O)OCc2c1cc1n(c2=O)Cc2cc3ccccc3nc2-1 | 68.3 ×10⁻⁶ cm/s
COc1ccccc1CNC(=O)CCCn1nc(C)c2c(C)n(-c3ccc(C)cc3)nc2c1=O | 604 ×10⁻⁶ cm/s

Structure (SMILES) | Papp
CN1C(=O)c2ccccc2[S@](=O)c2ccc(C(=O)NCCN3CCCC3)cc21 | 94.2 ×10⁻⁶ cm/s
COc1ccc(-c2nc3ccccc3c(=O)n2Cc2ccccc2)cc1COc1ccc(NC(C)=O)cc1 | > 1000 ×10⁻⁶ cm/s
N#Cc1cccc(-c2nccc(-n3ccnc3)n2)c1 | 492 ×10⁻⁶ cm/s
Cc1cnc(-c2ccccc2C2CC2)nc1NCc1ccc(-c2cccnc2)cc1 | > 1000 ×10⁻⁶ cm/s
CC(C)(C)OC(=O)N[C@@H](Cc1ccc(OS(=O)(=O)c2cccc3cnccc23)cc1)C(=O)N1CCCN(C(=O)OC(C)(C)C)CC1 | 818 ×10⁻⁶ cm/s
COC(=O)C1=C(C)NC(C)=C(C(=O)O[C@@H]2CCCN(Cc3ccccc3)C2)[C@@H]1c1cccc([N+](=O)[O-])c1 | 950 ×10⁻⁶ cm/s
CNc1oc(-c2cccc3ccccc23)nc1C#N | 723 ×10⁻⁶ cm/s
CS(=O)(=O)c1ccc(-c2nnc(/C=C/c3nnc(-c4ccc(C#N)cc4)o3)n2-c2ccccc2Cl)nc1 | > 1000 ×10⁻⁶ cm/s
CC(=O)c1c(C)[nH]c(C(=O)Nc2cccc(S(=O)(=O)N3CCCCCC3)c2)c1C | > 1000 ×10⁻⁶ cm/s
Nc1cc(CN2C(=O)c3ccccc3C2=O)cc(Cl)c1O | 352 ×10⁻⁶ cm/s
CCOc1ccc(CCNC(=O)c2cc3sccc3n2Cc2ccc(-n3cncn3)cc2)cc1OCC | > 1000 ×10⁻⁶ cm/s
O=[S+]([O-])(Nc1nccs1)c1ccc(NCc2cc(Cl)cc(Br)c2O)cc1 | 265 ×10⁻⁶ cm/s
Oc1ccc(CN2CC(CNc3ccccc3)C3(C2)CN(c2ccccc2)C3)cc1 (stereo unspecified) | > 1000 ×10⁻⁶ cm/s
CN1CCN(c2ccc(Nc3nc(-c4ccncc4)nc4ccccc34)cc2F)CC1 | > 1000 ×10⁻⁶ cm/s
Cc1noc(C)c1CN1CCNc2cc(Nc3ccccc3)ncc2C1 | 978 ×10⁻⁶ cm/s
Cc1cc(C)nc(NC(=S)N2CCN(Cc3ccc(C(F)(F)F)cc3)CC2)c1 | > 1000 ×10⁻⁶ cm/s
Cc1ccccc1N(C)C1CN([S+](=O)([O-])c2cccc(C(F)(F)F)c2)C1 | 991 ×10⁻⁶ cm/s
CC[C@@H]1C(=O)N(C)c2cnc(Nc3ccc(C(=O)NC4CCN(C)CC4)cc3OC)nc2N1C1CCCC1 | 561 ×10⁻⁶ cm/s
